From patent EP0072532A1, “5(6)-Phenyl-sulfonyloxy-benzimidazole derivatives, process for their production, pharmaceutical compositions containing them and their use against liver disorders” (priority 1981, dated 1983)
Where two headings read alike, the source gives them in different places.

Columns and labels:
[1] = test system: Fasciola hepatica; experiment: Chemotherapeutic test against adult liver flukes in artificially infected rats (reduction of egg count per gram faeces), oral application; assay type: in vivo; settings: Ratte
Source text: (§1) Zur Feststellung der Wirkung der erfindungsgemäßen Verbindungen gegen Fasciolide wurden chemotherapeutische Untersuchungen bei ca. 250 g schweren Ratten, bei 2 - 3,5 kg schweren Kaninchen oder an ca. 25 - 30 kg schweren Schaflämmern ausgeführt. Die Versuchstiere wurden mit 15, mit 50 bzw. mit 350 Metazerkarien von Fasciola hepatica artifiziell oral infiziert. Nach Ablauf der Präpatenzperiode (Zeit zwischen Infektion und Geschlechtsreife der Parasiten mit beginnender Ausscheidung von Vermehrungsprodukten) wurde der Parasitenbefall durch Kotuntersuchungen gesichert. Der qualitativ-quantitative Nachweis von Eiern erfolgte nach der Telemann-Anreicherung (Deutsche Medizinische Wochenschrift "34: 1510, 1908).
(§2) Unmittelbar nach der Bestimmung der Eizahl pro Gramm Kot wurde die Behandlung der Versuchstiere (im allgemeinen 3 - 4 Tiere pro Wirkstoff, mindestens aber zwei) vorgenommen. Den Tieren wurde oral eine Suspension von unterschiedlicher Wirkstoffmenge in jeweils festgelegten Volumen (Ratte: 0,5 ml/Tier, Kaninchen: 2 ml/Tier, Schaf: 10 ml/Tier) in einer Tylose-Suspension appliziert. Jeweils am 7., 14. und 28. Tag nach der Behandlung wurde wiederum nach der vorstehend angegebenen Methode die Eizahl pro Gramm Kot ermittelt und die prozentuale Abnahme im Vergleich zum Ausgangswert vor der Behandlung und in Vergleich zu unbehandelten Kontrolltieren errechnet.
(§3) Mit einigen erfindungsgemäßen Verbindungen wurden außerdem beim Fasciola-Befall noch eine zusätzliche Prüftechnik angewandt: Nach Abschluß der Präpatenzperiode wurde bei Fasciola-positiven Schafen ein künstlicher Gallengang geschaffen, der am Ausgang der Gallenblase ein Sieb enthielt, so daß die nach der Behandlung abgetöteten Leberegel in der Gallenblase aufgefangen werden konnten. Vier bis sieben Tage nach der Behandlung wurden die so operierten und dann behandelten Schafe getötet, die abgetöteten Leberegel in der Gallenblase so wie noch eventuell in der Leber vorhandene Leberegel gezählt und von der gesamten Wurmbürde der Prozentsatz der abgetöteten Parasiten berechnet. Bei ausgewählten Substanzen wurden über die Kotuntersuchung hinaus auch die behandelten Tiere seziert und die Leber auf eine eventuelle Rest-Wurmbürde von Fasciola hepatica untersucht.

[2] = test system: Fasciola hepatica; experiment: Chemotherapeutic test against adult liver flukes in artificially infected sheep (egg count reduction / killed flukes), oral application; assay type: in vivo, Schaf
Source text: as §1, §2, §3

[3] = test system: Fasciola hepatica; experiment: Chemotherapeutic test against adult liver flukes in artificially infected rabbits (reduction of egg count per gram faeces), oral application; assay type: in vivo; settings: Kaninchen
Source text: as §1, with “gesichert.” for “gesichert. Der qualitativ-quantitative Nachweis von Eiern erfolgte nach der Telemann-Anreicherung (Deutsche Medizinische Wochenschrift "34: 1510, 1908).”
as §2, §3

[4] = in vivo; settings: sheep, quotient of Dosis tolerata maxima and applied dose, read-out: Sicherheits-faktor
Source text: Eine einmalige Verabreichung der erfindungsgemäßen Wirkstoffe in den angegebenen Dosierungen führt zu einem völligen Aufhören der Eiausscheidung und einer nahezu 100 %igen Befreiung der Tiere von Fasciola hepatica. Alle Dosierungen wurden von den Tieren ohne Nebenerscheinungen vertragen. Dieses wird durch den Sicherheitsfaktor unterstrichen, der wesentlich günstiger ist als bei den zum Vergleich herangezogenen Wirkstoffen
Der Sicherheitsfaktor gibt den Quotienten aus Dosis tolerate maxima und angewandter Dosis an. Die Ergebnisse dieser Versuche sind in der nachstehenden Tabelle zusammengestellt.

[5] = 75 mg/kg peroral, adult liver flukes

Structure (SMILES) | Wirkung % ([1]; 50 mg/kg peroral) | Wirkung % ([1]; 75 mg/kg peroral) | Wirkung % ([2]; Schaf, 7,5 mg/kg peroral) | Wirkung % ([2]; Schaf, 10,0 mg/kg peroral) | Wirkung % [3, 5] | Wirkung % ([3]; <50 mg/kg peroral, adult liver flukes) | Wirkung % ([1]; 135 mg/kg peroral) | Wirkung % ([1]; 200 mg/kg peroral) | Wirkung % ([2]; Schaf, 3,75 mg/kg peroral) | Wirkung % ([3]; 50 mg/kg peroral, adult liver flukes) | selectivity ratio ([4]; applied dose 3,75 mg/kg (Schaf)) | selectivity ratio ([4]; applied dose 7,5 mg/kg (Schaf)) | Wirkung % ([1]; 4 mg/kg peroral) | Wirkung % ([1]; 8 mg/kg peroral) | Wirkung % ([2]; Schaf, 1,5 mg/kg peroral) | Wirkung % ([2]; Schaf, 3,0 mg/kg peroral) | Wirkung % ([3]; 4 mg/kg peroral, death printed instead of an efficacy value) | selectivity ratio ([4]; applied dose 3,0 mg/kg (Schaf))
CSc1nc2cc(OS(=O)(=O)c3cccc(C(F)(F)F)c3)ccc2[nH]1 [Beispiel 1, 5(6)-(3-Trifluormethyl-phenylsulfonyloxy)-2-methylmercapto-benzimidazol] | 80% | 100% | >95% | 100% | 100% | 100% | – | – | – | – | – | – | – | – | – | – | – | –
CC(=O)Oc1c(I)cc(I)cc1C(=O)Nc1ccc(Cl)cc1 [Clioxanide, 2-Acetoxy-4-chlor-3,5-dijod-benzanilid] | – | – | >90% | – | 0% | – | 0% | 0% | ca.50% | 0% | 30 | 15 | – | – | – | – | – | –
O=[N+]([O-])c1cc(Cl)cc(-c2cc(Cl)cc([N+](=O)[O-])c2O)c1O [Niclofolan, 5,5'-Dichlor-2,2`-dihydroxy-3,3'-dinitro-phenyl] | – | – | – | – | – | – | – | – | – | – | – | – | 80% | 90% | <50% | >90% | Exitus | 4.4
